Data reported in ChEMBL document CHEMBL4800727 (2021).

Columns and labels:
[1] = target: 5-hydroxytryptamine receptor 7 (Homo sapiens, UniProt P34969); test: GPCRScan assay: inhibition of 5-HT7A; set-up: radioligand conc. used [nm] 5.0 – 6.0, parental cells Stable HEK
[2] = target: Alpha-2B adrenergic receptor (Homo sapiens, UniProt P18089); test: GPCRScan assay: inhibition of Alpha2B; set-up: radioligand conc. used [nm] 1.5 – 2.0, parental cells HEKT
[3] = target: Macrophage colony-stimulating factor 1 receptor (Homo sapiens) (UniProt P07333); test: colony stimulating factor 1 receptor Millipore kinase panel; conditions: Compound concentration 10.0 uM
[4] = target: Death-associated protein kinase 3 (Homo sapiens) (UniProt O43293); test: death-associated protein kinase 3 Millipore kinase panel; conditions: Compound concentration 10.0 uM
[5] = target: Fibroblast growth factor receptor 4 (Homo sapiens) (UniProt P22455); test: fibroblast growth factor receptor 4 Millipore kinase panel; conditions: Compound concentration 10.0 uM
Chain of Fibroblast growth factor receptor 4 (Homo sapiens) (P22455 22-802 limits assumed): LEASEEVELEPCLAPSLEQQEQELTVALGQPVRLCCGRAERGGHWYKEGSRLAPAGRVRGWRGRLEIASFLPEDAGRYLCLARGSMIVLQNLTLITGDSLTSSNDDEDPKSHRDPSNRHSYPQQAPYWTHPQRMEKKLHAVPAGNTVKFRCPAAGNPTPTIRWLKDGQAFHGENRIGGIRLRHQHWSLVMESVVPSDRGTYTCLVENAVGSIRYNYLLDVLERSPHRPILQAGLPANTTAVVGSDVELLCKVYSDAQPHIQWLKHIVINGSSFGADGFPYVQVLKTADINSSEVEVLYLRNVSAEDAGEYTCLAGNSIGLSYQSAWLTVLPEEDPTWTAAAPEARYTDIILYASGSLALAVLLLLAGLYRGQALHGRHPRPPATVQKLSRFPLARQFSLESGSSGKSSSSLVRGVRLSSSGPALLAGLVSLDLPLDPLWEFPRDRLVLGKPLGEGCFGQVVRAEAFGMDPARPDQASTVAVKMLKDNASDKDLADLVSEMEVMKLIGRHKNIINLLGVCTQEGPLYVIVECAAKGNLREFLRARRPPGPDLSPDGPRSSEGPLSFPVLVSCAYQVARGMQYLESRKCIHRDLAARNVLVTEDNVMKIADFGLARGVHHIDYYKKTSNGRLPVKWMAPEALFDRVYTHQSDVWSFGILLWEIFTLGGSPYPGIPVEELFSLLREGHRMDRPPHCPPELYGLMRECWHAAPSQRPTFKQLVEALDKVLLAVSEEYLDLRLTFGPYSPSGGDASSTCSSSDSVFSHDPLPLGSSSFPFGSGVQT

[6] = target: Insulin-like growth factor 1 receptor (Homo sapiens) (UniProt P08069); test: insulin-like growth factor 1 receptor Millipore kinase panel; conditions: Compound concentration 10.0 uM
[7] = target: Insulin receptor-related protein (Homo sapiens) (UniProt P14616); test: insulin receptor-related receptor Millipore kinase panel; conditions: Compound concentration 10.0 uM
[8] = target: Serine/threonine-protein kinase MARK1 (Homo sapiens) (UniProt Q9P0L2); test: MAP/microtubule affinity-regulating kinase 1 Millipore kinase panel; conditions: Compound concentration 10.0 uM
[9] = target: MAP kinase-activated protein kinase 2 (Homo sapiens) (UniProt P49137); test: mitogen-activated protein kinase-activated protein kinase 2 Millipore kinase panel; conditions: Compound concentration 10.0 uM
[10] = target: Mitogen-activated protein kinase kinase kinase kinase 2 (Homo sapiens) (UniProt Q12851); test: mitogen-activated protein kinase kinase kinase kinase 2 Millipore kinase panel; conditions: Compound concentration 10.0 uM
[11] = target: BDNF/NT-3 growth factors receptor (Homo sapiens) (UniProt Q16620); test: neurotrophic tyrosine kinase, receptor, type 2 Millipore kinase panel; conditions: Compound concentration 10.0 uM
[12] = target: Serine/threonine-protein kinase Nek7 (Homo sapiens) (UniProt Q8TDX7); test: NIMA -related kinase 7 Millipore kinase panel; conditions: Compound concentration 10.0 uM
Chain of Serine/threonine-protein kinase Nek7 (Homo sapiens) (Q8TDX7 whole entry, looked up, canonical isoform): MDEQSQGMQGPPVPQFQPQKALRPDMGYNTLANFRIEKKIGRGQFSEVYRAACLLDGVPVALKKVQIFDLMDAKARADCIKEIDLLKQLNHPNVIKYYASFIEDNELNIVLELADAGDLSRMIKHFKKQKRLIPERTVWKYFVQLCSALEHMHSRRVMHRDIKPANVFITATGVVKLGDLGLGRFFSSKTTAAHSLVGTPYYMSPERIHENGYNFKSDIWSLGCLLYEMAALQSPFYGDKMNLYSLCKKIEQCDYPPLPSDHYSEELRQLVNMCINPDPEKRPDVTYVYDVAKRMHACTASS

[13] = target: Phosphatidylinositol 4,5-bisphosphate 3-kinase catalytic subunit beta isoform (Homo sapiens) (UniProt P42338); test: phosphoinositide-3-kinase, catalytic, beta polypeptide Millipore kinase panel; conditions: Compound concentration 10.0 uM
[14] = target: Serine/threonine-protein kinase PLK2 (Homo sapiens) (UniProt Q9NYY3); test: polo-like kinase 2 Millipore kinase panel; conditions: Compound concentration 10.0 uM
[15] = target: Serine/threonine-protein kinase PLK3 (Homo sapiens) (UniProt Q9H4B4); test: polo-like kinase 3 Millipore kinase panel; conditions: Compound concentration 10.0 uM
Chain of Serine/threonine-protein kinase PLK3 (Homo sapiens) (Q9H4B4 whole entry, looked up): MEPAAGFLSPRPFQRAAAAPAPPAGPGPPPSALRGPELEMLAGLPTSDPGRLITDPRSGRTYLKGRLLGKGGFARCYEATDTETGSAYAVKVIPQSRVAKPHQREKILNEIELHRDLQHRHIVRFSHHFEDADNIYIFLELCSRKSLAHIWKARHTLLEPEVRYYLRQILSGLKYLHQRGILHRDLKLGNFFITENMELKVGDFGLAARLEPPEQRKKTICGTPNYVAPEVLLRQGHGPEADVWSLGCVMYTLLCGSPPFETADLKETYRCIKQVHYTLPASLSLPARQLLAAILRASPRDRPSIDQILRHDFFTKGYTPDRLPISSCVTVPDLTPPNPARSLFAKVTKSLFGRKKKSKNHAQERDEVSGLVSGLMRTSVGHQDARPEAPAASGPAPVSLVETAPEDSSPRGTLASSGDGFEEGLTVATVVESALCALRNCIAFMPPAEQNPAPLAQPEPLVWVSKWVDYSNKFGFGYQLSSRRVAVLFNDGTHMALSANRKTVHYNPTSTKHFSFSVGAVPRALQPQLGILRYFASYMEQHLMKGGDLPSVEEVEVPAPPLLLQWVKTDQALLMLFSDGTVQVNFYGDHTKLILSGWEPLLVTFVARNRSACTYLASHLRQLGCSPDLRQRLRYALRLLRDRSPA

[16] = target: Protein kinase C iota type (Homo sapiens) (UniProt P41743); test: protein kinase C, iota Millipore kinase panel; conditions: Compound concentration 10.0 uM
[17] = target: 5'-AMP-activated protein kinase catalytic subunit alpha-2 (Homo sapiens) (UniProt P54646); test: protein kinase, AMP-activated, alpha 2 catalytic subunit Millipore kinase panel; conditions: Compound concentration 10.0 uM
[18] = target: Receptor-interacting serine/threonine-protein kinase 2 (Homo sapiens) (UniProt O43353); test: receptor-interacting serine-threonine kinase 2 Millipore kinase panel; conditions: Compound concentration 10.0 uM
Chain of Receptor-interacting serine/threonine-protein kinase 2 (Homo sapiens) (O43353 whole entry): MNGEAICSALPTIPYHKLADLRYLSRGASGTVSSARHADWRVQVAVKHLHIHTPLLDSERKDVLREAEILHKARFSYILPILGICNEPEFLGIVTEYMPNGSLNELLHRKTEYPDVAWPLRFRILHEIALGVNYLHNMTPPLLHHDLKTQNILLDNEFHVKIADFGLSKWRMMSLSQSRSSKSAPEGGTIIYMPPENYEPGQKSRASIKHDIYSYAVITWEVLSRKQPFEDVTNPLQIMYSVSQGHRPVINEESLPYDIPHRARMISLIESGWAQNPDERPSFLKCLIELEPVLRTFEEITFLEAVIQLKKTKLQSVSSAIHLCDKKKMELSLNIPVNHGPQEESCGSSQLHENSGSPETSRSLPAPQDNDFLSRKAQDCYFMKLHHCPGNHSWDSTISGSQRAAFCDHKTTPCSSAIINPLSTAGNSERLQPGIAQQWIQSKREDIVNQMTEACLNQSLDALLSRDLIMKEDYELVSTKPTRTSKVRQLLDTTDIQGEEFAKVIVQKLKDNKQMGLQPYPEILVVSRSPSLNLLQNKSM

[19] = target: Rho-associated protein kinase 1 (Homo sapiens) (UniProt Q13464); test: Rho-associated, coiled-coil containing protein kinase 1 Millipore kinase panel; conditions: Compound concentration 10.0 uM
Chain of Rho-associated protein kinase 1 (Homo sapiens) (Q13464 2-1354 limits assumed): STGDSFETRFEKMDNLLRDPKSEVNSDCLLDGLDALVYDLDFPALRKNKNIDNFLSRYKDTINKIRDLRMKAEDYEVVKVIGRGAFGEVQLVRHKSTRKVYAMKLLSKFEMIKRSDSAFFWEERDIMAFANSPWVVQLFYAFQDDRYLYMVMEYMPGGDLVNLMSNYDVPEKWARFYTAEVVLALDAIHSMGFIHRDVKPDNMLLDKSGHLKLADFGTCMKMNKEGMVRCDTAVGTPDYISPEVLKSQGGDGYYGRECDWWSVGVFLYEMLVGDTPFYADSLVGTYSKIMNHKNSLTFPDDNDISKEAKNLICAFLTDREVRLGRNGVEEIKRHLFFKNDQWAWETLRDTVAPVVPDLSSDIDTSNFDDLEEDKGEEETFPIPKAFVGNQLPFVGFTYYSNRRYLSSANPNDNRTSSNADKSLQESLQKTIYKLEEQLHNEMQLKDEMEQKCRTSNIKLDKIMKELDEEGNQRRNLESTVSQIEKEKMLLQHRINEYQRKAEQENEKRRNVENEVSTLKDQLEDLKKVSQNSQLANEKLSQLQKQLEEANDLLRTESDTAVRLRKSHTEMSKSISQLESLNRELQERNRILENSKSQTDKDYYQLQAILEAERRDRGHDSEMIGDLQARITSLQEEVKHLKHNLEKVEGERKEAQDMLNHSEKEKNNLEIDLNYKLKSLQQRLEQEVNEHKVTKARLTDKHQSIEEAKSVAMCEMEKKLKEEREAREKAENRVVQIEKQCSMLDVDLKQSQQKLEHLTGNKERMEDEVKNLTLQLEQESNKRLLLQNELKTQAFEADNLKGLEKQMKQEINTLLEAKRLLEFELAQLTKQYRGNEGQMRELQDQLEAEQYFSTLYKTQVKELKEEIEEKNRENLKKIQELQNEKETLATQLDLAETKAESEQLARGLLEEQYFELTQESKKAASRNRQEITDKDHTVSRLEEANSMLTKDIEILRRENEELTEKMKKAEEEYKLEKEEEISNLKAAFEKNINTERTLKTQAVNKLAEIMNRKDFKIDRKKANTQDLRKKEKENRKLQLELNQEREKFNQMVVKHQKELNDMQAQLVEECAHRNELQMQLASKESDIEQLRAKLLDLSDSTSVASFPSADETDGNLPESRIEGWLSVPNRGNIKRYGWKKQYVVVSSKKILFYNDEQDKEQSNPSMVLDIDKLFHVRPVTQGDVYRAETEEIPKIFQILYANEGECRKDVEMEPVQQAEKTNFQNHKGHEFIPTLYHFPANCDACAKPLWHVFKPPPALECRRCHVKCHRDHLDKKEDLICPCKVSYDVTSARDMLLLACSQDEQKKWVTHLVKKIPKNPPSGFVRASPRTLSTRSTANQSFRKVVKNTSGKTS

[20] = target: Ribosomal protein S6 kinase alpha-4 (Homo sapiens) (UniProt O75676); test: ribosomal protein S6 kinase, 90kDa, polypeptide 4 Millipore kinase panel; conditions: Compound concentration 10.0 uM
[21] = target: Serine/threonine-protein kinase 17A (Homo sapiens) (UniProt Q9UEE5); test: serine/threonine kinase 17a Millipore kinase panel; conditions: Compound concentration 10.0 uM
[22] = target: Serine/threonine-protein kinase TAO3 (Homo sapiens) (UniProt Q9H2K8); test: TAO kinase 3 Millipore kinase panel; conditions: Compound concentration 10.0 uM
[23] = target: Tyrosine-protein kinase Lyn (Homo sapiens) (UniProt P07948); test: v-yes-1 Yamaguchi sarcoma viral related oncogene homolog Millipore kinase panel; conditions: Compound concentration 10.0 uM
Chain of Tyrosine-protein kinase Lyn (Homo sapiens) (P07948 2-512 limits assumed): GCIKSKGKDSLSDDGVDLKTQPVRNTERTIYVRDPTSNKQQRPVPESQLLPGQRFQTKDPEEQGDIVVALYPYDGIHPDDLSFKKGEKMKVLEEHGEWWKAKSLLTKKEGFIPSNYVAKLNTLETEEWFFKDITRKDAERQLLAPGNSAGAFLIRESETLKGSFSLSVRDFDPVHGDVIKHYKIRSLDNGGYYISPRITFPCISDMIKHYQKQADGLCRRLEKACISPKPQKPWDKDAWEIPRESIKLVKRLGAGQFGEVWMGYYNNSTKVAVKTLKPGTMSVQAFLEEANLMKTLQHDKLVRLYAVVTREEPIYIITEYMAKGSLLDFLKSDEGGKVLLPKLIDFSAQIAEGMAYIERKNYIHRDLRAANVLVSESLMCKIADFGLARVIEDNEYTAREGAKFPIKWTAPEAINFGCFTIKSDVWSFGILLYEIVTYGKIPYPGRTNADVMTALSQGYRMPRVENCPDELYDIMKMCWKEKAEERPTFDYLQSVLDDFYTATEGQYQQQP

[24] = target: Serine/threonine-protein kinase WNK2 (Homo sapiens) (UniProt Q9Y3S1); test: WNK lysine deficient protein kinase 2 Millipore kinase panel; conditions: Compound concentration 10.0 uM
[25] = target: cGMP-dependent 3',5'-cyclic phosphodiesterase (Homo sapiens, UniProt O00408); test: hPDE2A PDE scan
[26] = target: High affinity cAMP-specific and IBMX-insensitive 3',5'-cyclic phosphodiesterase 8A (Homo sapiens, UniProt O60658); test: hPDE8A1 PDE scan
[27] = target: cAMP and cAMP-inhibited cGMP 3',5'-cyclic phosphodiesterase 10A (Homo sapiens, UniProt Q9Y233); test: hPDE10A2 PDE scan
[28] = target: Dual 3',5'-cyclic-AMP and -GMP phosphodiesterase 11A (Homo sapiens, UniProt Q9HCR9); test: hPDE11A4 PDE scan
[29] = target: D(2) dopamine receptor (Homo sapiens) (UniProt P14416); test: hD2S Cerep panel; conditions: Compound concentration 10.0 uM
[30] = target: Adenosine receptor A1 (Homo sapiens) (UniProt P30542); test: hA1 Cerep panel; conditions: Compound concentration 10.0 uM
[31] = target: Cannabinoid receptor 2 (Homo sapiens) (UniProt P34972); test: hCB2 Cerep panel; conditions: Compound concentration 10.0 uM
[32] = target: Cholecystokinin receptor type A (Homo sapiens) (UniProt P32238); test: hCCKA Cerep panel; conditions: Compound concentration 10.0 uM
[33] = target: D(1A) dopamine receptor (Homo sapiens) (UniProt P21728); test: hD1 Cerep panel; conditions: Compound concentration 10.0 uM
Chain of D(1A) dopamine receptor (Homo sapiens) (P21728 whole entry): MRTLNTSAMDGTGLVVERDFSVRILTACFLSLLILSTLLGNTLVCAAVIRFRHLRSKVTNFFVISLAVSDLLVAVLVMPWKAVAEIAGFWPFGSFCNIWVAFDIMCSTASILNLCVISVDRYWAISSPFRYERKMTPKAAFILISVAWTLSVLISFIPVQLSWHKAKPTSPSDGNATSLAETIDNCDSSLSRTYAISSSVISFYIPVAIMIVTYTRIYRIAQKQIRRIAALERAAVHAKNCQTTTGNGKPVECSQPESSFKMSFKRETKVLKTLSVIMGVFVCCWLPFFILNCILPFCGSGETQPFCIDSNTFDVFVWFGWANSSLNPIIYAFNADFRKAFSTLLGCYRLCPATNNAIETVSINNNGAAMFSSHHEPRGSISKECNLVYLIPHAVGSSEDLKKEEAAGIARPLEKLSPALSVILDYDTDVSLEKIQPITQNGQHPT

[34] = target: Delta-type opioid receptor (Homo sapiens) (UniProt P41143); test: hOP1 Cerep panel; conditions: Compound concentration 10.0 uM
[35] = target: T1, 5-hydroxytryptamine receptor 2C (Homo sapiens) (UniProt P28335); test: h5HT2C Cerep panel; conditions: Compound concentration 10.0 uM
T1 sequence (whole entry): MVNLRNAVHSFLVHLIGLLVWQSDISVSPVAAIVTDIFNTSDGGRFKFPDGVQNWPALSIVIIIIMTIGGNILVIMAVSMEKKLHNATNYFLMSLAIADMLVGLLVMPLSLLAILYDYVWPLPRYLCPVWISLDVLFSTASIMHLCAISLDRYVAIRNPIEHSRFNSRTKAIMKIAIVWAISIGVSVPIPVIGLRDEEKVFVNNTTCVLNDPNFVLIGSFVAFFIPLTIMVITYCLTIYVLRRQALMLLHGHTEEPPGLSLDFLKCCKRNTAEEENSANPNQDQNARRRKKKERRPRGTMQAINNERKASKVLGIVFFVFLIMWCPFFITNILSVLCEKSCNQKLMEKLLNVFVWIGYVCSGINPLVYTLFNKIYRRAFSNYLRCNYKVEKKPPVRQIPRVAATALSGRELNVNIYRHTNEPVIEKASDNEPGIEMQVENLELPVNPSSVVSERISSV

[36] = target: 5-hydroxytryptamine receptor 6 (Homo sapiens) (UniProt P50406); test: h5HT6 Cerep panel; conditions: Compound concentration 10.0 uM
Rattus norvegicus [37] = species: Rattus norvegicus; test: rCL channel Cerep panel; conditions: Compound concentration 10.0 uM
[38] = target: Prostaglandin E2 receptor EP4 subtype (Homo sapiens) (UniProt P35408); test: hEP4 Cerep panel; conditions: Compound concentration 10.0 uM
[39] = PPAR1C Cerep panel; conditions: Compound concentration 10.0 uM
[40] = target: Prostaglandin E2 receptor EP2 subtype (Homo sapiens) (UniProt P43116); test: hEP2 Cerep panel; conditions: Compound concentration 10.0 uM
[41] = target: Prostaglandin G/H synthase 2 (Homo sapiens) (UniProt P35354); test: hCOX2 Cerep panel; conditions: Compound concentration 10.0 uM
[42] = target: Histamine H4 receptor (Homo sapiens) (UniProt Q9H3N8); conditions: Compound concentration 10.0 uM
[43] = target: Muscarinic acetylcholine receptor M5 (Homo sapiens) (UniProt P08912); conditions: Compound concentration 10.0 uM
Rattus norvegicus [44] = species: Rattus norvegicus; conditions: Compound concentration 10.0 uM

Chain of Alpha-2B adrenergic receptor (P18089 whole entry): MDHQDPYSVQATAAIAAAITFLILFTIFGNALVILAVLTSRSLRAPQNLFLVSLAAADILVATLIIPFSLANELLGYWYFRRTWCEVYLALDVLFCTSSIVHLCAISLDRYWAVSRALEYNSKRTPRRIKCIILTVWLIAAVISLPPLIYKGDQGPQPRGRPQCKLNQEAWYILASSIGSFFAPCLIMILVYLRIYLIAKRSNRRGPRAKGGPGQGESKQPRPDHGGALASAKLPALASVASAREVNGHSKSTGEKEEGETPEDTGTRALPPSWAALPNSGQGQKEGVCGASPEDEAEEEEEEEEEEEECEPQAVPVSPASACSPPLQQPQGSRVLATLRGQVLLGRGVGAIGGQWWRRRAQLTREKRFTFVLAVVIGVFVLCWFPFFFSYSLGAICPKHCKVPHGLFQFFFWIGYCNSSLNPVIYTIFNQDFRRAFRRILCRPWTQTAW

COCCc1ccc(-c2c(C)nc3c(N4CCOCC4)ccnn23)cn1 [JNJ-42396302]
Ki [1]: 8.74 µM
Ki [2]: > 10 µM
pKi [2]: < 5
inhibition [3]: 4%
inhibition [4]: -2%
inhibition [5]: -7%
inhibition [6]: 1%
inhibition [7]: 10%
inhibition [8]: -6%
inhibition [9]: -5%
inhibition [10]: -5%
inhibition [11]: -5%
inhibition [12]: 2%
inhibition [13]: 1%
inhibition [14]: -7%
inhibition [15]: -2%
inhibition [16]: 3%
inhibition [17]: 2%
inhibition [18]: -6%
inhibition [19]: -6%
inhibition [20]: 2%
inhibition [21]: -9%
inhibition [22]: 0%
inhibition [23]: -1%
inhibition [24]: -1%
Ki [25]: 32 µM
Ki [26]: 41 µM
Ki [27]: 0.013 µM
Ki [28]: 46 µM
effect [29]: 1.7%
effect [30]: 11.3%
effect [31]: 6.1%
effect [32]: -19.6%
effect [33]: 6.2%
effect [34]: 8.95%
effect [35]: -1.95%
effect [36]: 4.9%
effect (Rattus norvegicus [37]): -12.3%
effect [38]: 13.6%
effect [39]: -2.05%
effect [40]: 3.95%
effect [41]: 13.4%
inhibition [42]: -1.08%
inhibition [43]: -1.98%
inhibition (Rattus norvegicus [44]): 2.18%
